The results in this text go back to patent US7981883B2, “Substituted spiro-compounds and the use thereof for producing medicaments” (Gruenenthal GmbH, priority 2005, dated 2011).

What all share (type): cell-based
The target in assay [1] is T1, VR1 (human) (Homo sapiens, UniProt Q8NER1).
T1 construct: expressed in transfected cells; host or cells: CHO K1 cells (ECACC)
Description: Functional FLIPR Ca2+ inflow assay on VR1 (human), CHO K1 cells stably transfected with the VR1 gene. As to conditions: test compound 10 μM; for inhibition at 10 µM / activation at 10 µM: CHO-K1; for inhibition at 10 µM: read-out: VR1 (human) (% inhibition compared to 10 μM CP); for activation at 10 µM: read-out: VR1 (human) (% stimulation compared to 10 μM CP). An excerpt: II. Functional Testing Carried Out on the Vanilloid Receptor (VR1)
The agonistic or antagonistic effect of the substances to be tested can also be determined on the vanilloid receptor (VR1) using the following assay. According to this assay, the Ca^2+ inflow is quantified through the channel using a Ca^2+-sensitive dye (type Fluo-4, Molecular Probes Europe BV, Leiden, Netherlands) in a fluorescent imaging plate reader (FLIPR, Molecular Devices, Sunnyvale, USA).
Chinese hamster ovary cells (CHO K1 cells, European Collection of Cell Cultures (ECACC) United Kingdom) were stably transfected with the VR1 gene. For functional testing, these cells were plated out on poly-D-lysine-coated black 96 well plates having a clear base (BD Biosciences, Heidelberg, Germany) at a density of 25,000 cells/well. The cells were incubated overnight at 37° C. and 5% CO2 in a culture medium (Ham's F12 nutrient mixture, 10% by volume of FCS (foetal calf serum), 18 μg/ml L-proline). The next day the cells were incubated with Fluo-4 (Fluo-4 2 μM, 0.01% by volume of Pluronic F127, Molecular Probes in HBSS (Hank's buffered saline solution), Gibco Invitrogen GmbH, Karlsruhe, Germany) for 30 minutes at 37° C. Subsequently, the plates were washed three times with HBSS buffer and after further incubation for 15 minutes at room temperature used for Ca^2+ measurement in a FLIPR assay. The Ca^2+-dependent fluorescence was measured before and after the addition of the substances to be tested (λex wavelength=488 nm, λem=540 nm). Quantification was carried out by measuring the highest fluorescence intensity (FC, Fluorescence Counts) over time.
The FLIPR protocol consists of 2 substance additions. First the compounds to be tested (10 μM) were pipetted onto the cells and the Ca^2+ inflow was compared with the control (capsaicin 10 μM) (% activation based on the Ca^2+ signal after the addition of 10 μM capsaicin). After 5 minutes' incubation, 100 nM of capsaicin were administered and the Ca^2+ inflow was also determined.
Desensitising agonists and antagonists led to suppression of the Ca^2+ inflow. The % inhibition was calculated compared to the maximum achievable inhibition with 10 μM of capsaicin.

Assay [2] deals with T2, VR1 (rat) (Rattus norvegicus, UniProt O35433).
T2 construct: from tissue; host or cells: primary cells dissociated from rat dorsal root ganglia
The assay is described as follows: Functional FLIPR Ca2+ inflow assay on rat-species vanilloid receptor 1 in rat dorsal root ganglia cells. As to conditions: test compound 10 μM; for inhibition at 10 µM: read-out: VR1 (rat) (% inhibition compared to 10 μM CP); for activation at 10 µM: read-out: VR1 (rat) (% stimulation compared to 10 μM CP). From the text: I. Functional Testing Carried Out on the Vanilloid Receptor 1 (VR1/TRPV1 Receptor)
The agonistic or antagonistic effect of the substances to be tested can be determined on the rat-species vanilloid receptor 1 (VR1/TRPV1) using the following assay. According to this assay, the Ca^2+ inflow is quantified through the receptor channel using a Ca^2+-sensitive dye (type Fluo-4, Molecular Probes Europe BV, Leiden, Netherlands) in a fluorescent imaging plate reader (FLIPR, Molecular Devices, Sunnyvale, USA).
Complete medium: 50 mL HAMS F12 nutrient mixture (Gibco Invitrogen GmbH, Karlsruhe, Germany) with
10% by volume of FCS (foetal calf serum, Gibco Invitrogen GmbH, Karlsruhe, Germany, […]);
2 mM L-glutamine (Sigma, Munich, Germany);
1% by weight of AA solution (antibiotic/antimyotic solution, PAA, Pasching, Austria) and 25 ng/ml NGF medium (2.5 S, Gibco Invitrogen GmbH, Karlsruhe, Germany)
Cell culture plate: Poly-D-lysine-coated, black 96 well plates having a clear base (96 well black/clear plate, BD Biosciences, Heidelberg, Germany) were additionally coated with laminin (Gibco Invitrogen GmbH, Karlsruhe, Germany), the laminin being diluted with PBS (Ca—Mg-free PBS, Gibco Invitrogen GmbH, Karlsruhe, Germany) to a concentration of 100 μg/mL. Aliquots having a laminin concentration of 100 μg/mL were removed and stored at −20° C. The aliquots were diluted with PBS in a ratio of 1:10 to 10 μg/mL laminin and in each case 50 μL of the solution were pipetted into a recess in the cell culture plate. The cell culture plates were incubated for at least two hours at 37° C., the excess solution was removed by suction-filtration and the recesses were each washed twice with PBS. The coated cell culture plates were stored with excess PBS which was not removed until just before the feeding of the cells.
The vertebral column was removed from decapitated rats and placed immediately into cold HBSS buffer (Hank's buffered saline solution, Gibco Invitrogen GmbH, Karlsruhe, Germany), i.e. buffer located in an ice bath, mixed with 1% by volume (percent by volume) of an AA solution (antibiotic/antimyotic solution, PAA, Pasching, Austria). The vertebral column was cut longitudinally and removed together with fasciae from the vertebral canal. Subsequently, the dorsal root ganglia (DRG) were removed and again stored in cold HBSS buffer mixed with 1% by volume of an AA solution. The DRG, from which all blood remnants and spinal nerves had been removed, were transferred in each case to 500 μL of cold type 2 collagenase (PAA, Pasching, Austria) and incubated for 35 minutes at 37° C. After the addition of 2.5% by volume of trypsin (PAA, Pasching, Austria), incubation was continued for 10 minutes at 37° C. After complete incubation, the enzyme solution was carefully pipetted off and 500 μL of complete medium were added to each of the remaining DRG. The DRG were in each case suspended several times, drawn through cannulae No. 1, No. 12 and No. 16 using a syringe and transferred to a 50 mL Falcon tube which was filled up to 15 mL with complete medium. The contents of each Falcon tube was in each case filtered through a 70 μm Falcon filter element and centrifuged for 10 minutes at 1,200 rpm and room temperature. The resulting pellet was in each case taken up in 250 μL of complete medium and the number of cells determined.
The number of cells in the suspension was set to 3×10^5 per mL and 150 μL of this suspension were in each case introduced into a recess in the cell culture plates coated as described hereinbefore. In the incubator the plates were left for two to three days at 37° C., 5% by volume of CO2 and 95% relative humidity. […]

Assay [3] addresses T1, VR1 (human). The assay is described as follows: Functional FLIPR Ca2+ inflow assay on VR1 (human), CHO K1 cells stably transfected with the VR1 gene. As to conditions: against capsaicin (CAP).
Assay [4] concerns the target T2, VR1 (rat). Description: Functional FLIPR Ca2+ inflow assay on rat-species vanilloid receptor 1 in rat dorsal root ganglia cells. As to conditions: against capsaicin (CAP).
Where [5] appears, read: then 100 nM capsaicin after 5 min, relative to maximum inhibition with 10 μM capsaicin.
[6] abbreviates: Ca2+ signal relative to 10 μM capsaicin (CP).

T2 sequence (O35433 whole entry): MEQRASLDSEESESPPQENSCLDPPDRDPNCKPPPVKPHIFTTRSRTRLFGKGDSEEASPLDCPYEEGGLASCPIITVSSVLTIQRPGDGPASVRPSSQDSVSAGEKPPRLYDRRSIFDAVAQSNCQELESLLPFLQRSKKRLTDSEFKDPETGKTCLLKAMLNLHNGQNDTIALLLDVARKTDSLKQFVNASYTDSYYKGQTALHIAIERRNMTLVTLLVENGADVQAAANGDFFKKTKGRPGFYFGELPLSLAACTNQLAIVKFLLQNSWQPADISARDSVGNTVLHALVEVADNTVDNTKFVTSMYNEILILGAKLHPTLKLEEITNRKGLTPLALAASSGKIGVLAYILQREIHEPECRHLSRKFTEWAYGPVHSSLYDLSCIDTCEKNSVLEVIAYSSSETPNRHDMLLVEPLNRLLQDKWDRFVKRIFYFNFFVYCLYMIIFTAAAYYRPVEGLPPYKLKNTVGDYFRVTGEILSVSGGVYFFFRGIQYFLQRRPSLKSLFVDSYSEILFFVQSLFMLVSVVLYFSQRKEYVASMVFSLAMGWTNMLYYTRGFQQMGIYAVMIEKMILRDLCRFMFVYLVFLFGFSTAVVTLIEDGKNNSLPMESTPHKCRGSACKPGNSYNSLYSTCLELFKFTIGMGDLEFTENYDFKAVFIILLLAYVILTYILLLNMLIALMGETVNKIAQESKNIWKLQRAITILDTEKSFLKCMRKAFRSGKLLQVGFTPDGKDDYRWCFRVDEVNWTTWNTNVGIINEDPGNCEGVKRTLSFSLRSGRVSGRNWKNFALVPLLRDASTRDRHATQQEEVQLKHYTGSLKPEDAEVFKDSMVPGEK
T1 sequence (Q8NER1 whole entry): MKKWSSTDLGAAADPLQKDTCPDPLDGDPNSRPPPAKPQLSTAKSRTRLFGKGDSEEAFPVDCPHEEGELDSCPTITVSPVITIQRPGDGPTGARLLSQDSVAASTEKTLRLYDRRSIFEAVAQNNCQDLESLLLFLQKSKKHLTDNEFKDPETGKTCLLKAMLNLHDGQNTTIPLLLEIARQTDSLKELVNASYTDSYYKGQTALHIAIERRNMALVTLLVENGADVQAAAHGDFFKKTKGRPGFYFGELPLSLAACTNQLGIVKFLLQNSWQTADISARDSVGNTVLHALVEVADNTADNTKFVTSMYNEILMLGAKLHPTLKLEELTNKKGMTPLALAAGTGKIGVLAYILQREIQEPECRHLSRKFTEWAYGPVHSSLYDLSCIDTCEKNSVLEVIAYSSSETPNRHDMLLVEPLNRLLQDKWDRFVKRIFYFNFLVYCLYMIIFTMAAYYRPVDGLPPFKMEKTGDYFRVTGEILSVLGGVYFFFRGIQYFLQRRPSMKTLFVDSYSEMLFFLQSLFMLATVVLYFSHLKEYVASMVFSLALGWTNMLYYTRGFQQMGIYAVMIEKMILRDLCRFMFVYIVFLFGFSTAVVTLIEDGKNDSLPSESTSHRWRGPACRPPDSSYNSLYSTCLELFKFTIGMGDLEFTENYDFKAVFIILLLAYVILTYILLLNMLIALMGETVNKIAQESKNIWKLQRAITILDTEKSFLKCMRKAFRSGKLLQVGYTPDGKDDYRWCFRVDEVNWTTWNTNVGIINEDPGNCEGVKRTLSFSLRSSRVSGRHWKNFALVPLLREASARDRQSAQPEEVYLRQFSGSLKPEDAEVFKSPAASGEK

Turning to `CC(C)(C)[C@H]1CC[C@@]2(CC1)CC(C(=O)NCc1ccc(NS(C)(=O)=O)c(F)c1)=NO2` [Example 7, cis-8-tert-butyl-1-oxa-2-azaspiro[4.5]dec-2-ene-3-carboxylic acid-3-fluoro-4-methanesulphonylaminobenzylamide], the inhibition at 10 µM at VR1 (human) [1] (setting [5]) was 92.8%; at VR1 (rat) [2] (setting [5]) it was 105%. The activation at 10 µM at VR1 (human) [1] (setting [6]) is -0.05%; at VR1 (rat) [2] (setting [6]), 0.23%. The IC50 on VR1 (human) [3] was 1.24 µM; against VR1 (rat) [4], 0.126 µM. Further, the Ki on VR1 (human) [3] is 1.99 µM; at VR1 (rat) [4], 0.0797 µM.
As to `CC(C)(C)[C@H]1CC[C@@]2(CC1)CC(C(=O)N1CCN(c3ncccc3C(F)(F)F)CC1)=NO2` [Example 9, cis-(8-tert-butyl-1-oxa-2-azaspiro[4.5]dec-2-en-3-yl)-[4-(3-trifluoromethylpyridin-2-yl)piperazin-1-yl]methanone], the “VR1 (human) (% inhibition compared to 10 μM CP)” value at VR1 (human) [1] (setting [5]) is 61.74%. Besides, the “VR1 (human) (% stimulation compared to 10 μM CP)” value at VR1 (human) [1] (setting [6]) amounted to 0.41%. The “VR1 (rat) (% inhibition compared to 10 μM CP)” value on VR1 (rat) [2] (setting [5]) amounted to 91.46%. In addition, the “VR1 (rat) (% stimulation compared to 10 μM CP)” value at VR1 (rat) [2] (setting [6]) was found to be 1.05%. Moreover, at VR1 (human) [3], the IC50 was 3.34 µM and the affinity, expressed as Ki, was 4.86 µM. Also, on VR1 (rat) [4], it took 1.55 µM to reach half-maximal inhibition (IC50) and the Ki was 0.894 µM.
With `CCC(C)(C)C1CCC2(CC1)CC(C(=O)NCc1ccc(NS(C)(=O)=O)c(F)c1)=NO2` (stereo not drawn) [Example 80, N-(3-fluoro-4-(methylsulphonamido)benzyl)-8-tert-pentyl-1-oxa-2-azaspiro[4.5]dec-2-ene-3-carboxamide], the inhibition at 10 µM at VR1 (human) [1] (setting [5]) stood at 42%; at VR1 (rat) [2] (setting [5]), 103%. The values for the activation at 10 µM at VR1 (human) [1] (setting [6]) and at VR1 (rat) [2] (setting [6]) were 35% and 48%, respectively. Further, the half-maximal inhibitory concentration (IC50) against VR1 (human) [3] is 2.87 µM; against VR1 (rat) [4], 1.22 µM. Also, the Ki on VR1 (human) [3] came to 2.05 µM; on VR1 (rat) [4], 0.341 µM.
